Three compounds from ChEMBL document CHEMBL1201862, “PubChem BioAssay data set” (2004) can be followed below.

The source made the active and inactive calls. A value given as a limit tells only on which side of the number the result lay.

The target in assay [1] is Nucleotide-binding oligomerization domain-containing protein 2 (Homo sapiens, UniProt Q9HC29). As to the kind of experiment: inhibition of NOD2-driven NF-kB reporter – cell-based, luminescence, uHTS, HEK293 (AID 1566). Format: functional.
Nucleotide-binding oligomerization domain-containing protein 2, sequence (Q9HC29 whole entry, the tested form may be a part): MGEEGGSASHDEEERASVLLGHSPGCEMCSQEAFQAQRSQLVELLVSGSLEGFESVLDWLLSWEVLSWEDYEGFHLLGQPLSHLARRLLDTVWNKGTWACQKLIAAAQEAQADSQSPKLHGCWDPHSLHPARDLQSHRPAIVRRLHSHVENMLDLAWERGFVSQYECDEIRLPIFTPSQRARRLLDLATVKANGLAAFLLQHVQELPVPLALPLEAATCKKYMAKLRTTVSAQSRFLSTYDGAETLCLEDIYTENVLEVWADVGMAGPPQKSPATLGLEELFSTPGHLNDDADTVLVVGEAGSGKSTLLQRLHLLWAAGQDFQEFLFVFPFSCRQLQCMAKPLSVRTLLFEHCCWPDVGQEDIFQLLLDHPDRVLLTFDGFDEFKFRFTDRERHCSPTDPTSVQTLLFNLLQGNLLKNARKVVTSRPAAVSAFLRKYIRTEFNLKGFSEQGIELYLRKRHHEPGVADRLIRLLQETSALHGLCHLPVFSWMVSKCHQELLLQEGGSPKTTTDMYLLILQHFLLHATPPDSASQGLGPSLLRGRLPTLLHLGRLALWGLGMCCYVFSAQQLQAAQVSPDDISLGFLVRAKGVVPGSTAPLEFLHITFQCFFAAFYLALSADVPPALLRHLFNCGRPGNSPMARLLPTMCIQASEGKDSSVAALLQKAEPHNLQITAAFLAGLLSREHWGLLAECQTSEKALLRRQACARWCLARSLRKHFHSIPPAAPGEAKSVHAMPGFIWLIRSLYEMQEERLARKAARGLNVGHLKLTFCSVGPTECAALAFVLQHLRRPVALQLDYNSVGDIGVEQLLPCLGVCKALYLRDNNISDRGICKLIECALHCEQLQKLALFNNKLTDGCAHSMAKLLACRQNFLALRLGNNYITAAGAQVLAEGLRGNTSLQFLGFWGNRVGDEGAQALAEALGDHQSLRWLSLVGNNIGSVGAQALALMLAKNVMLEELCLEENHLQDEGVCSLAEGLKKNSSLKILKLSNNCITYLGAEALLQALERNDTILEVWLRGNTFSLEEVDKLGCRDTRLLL
Assay [2] can be described thus: non-specific 3'UTR reporter inhibition in Clone20-Shn3RL – cell-based, Renilla luciferase, cherry-picked, counter-screen for Shn3 inhibitor project, dose response (AID 624133). Format: functional.
Assay [3] addresses Dual specificity tyrosine-phosphorylation-regulated kinase 1A (Rattus norvegicus, UniProt Q63470). It is filed as biochemical, Homo sapiens.
The test system of assay [4] is INS1. Nature of the assay: INS-1E survival protection against cytokine death – cell-based, luminescence, retest, dose response (AID 449756).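 Also: cell death triggered by IL-1 beta plus TNF-alpha plus IFN-gamma mixture; protective hits raise ATP signal compared with cytokine alone wells.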 Format: functional. The following applies: Rattus norvegicus.
The target in assay [5] is Tyrosyl-DNA phosphodiesterase 2 (Homo sapiens, UniProt O95551). As to the kind of experiment: potency against TDP2 phosphodiesterase activity – biochemical, epi absorbance, IC50, dose response (AID 743297).
Tyrosyl-DNA phosphodiesterase 2, sequence (O95551 whole entry): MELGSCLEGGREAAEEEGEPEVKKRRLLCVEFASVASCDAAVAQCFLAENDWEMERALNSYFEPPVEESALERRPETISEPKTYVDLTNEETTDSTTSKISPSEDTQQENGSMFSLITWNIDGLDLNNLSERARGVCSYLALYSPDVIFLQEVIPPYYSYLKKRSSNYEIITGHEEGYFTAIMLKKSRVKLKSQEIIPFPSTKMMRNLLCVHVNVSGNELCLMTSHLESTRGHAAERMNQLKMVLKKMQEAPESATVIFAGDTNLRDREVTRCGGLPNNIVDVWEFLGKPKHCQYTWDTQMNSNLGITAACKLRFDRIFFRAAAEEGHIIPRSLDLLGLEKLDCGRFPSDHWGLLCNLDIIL
For assay [6], the system named is HEK293. Nature of the assay: cells. Format: functional, cell-based. The following applies: Homo sapiens.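 Also: HEK-293-T cells carrying an NF-kB luciferase reporter; cells exposed to compound overnight before the viability read; potency for loss of cell viability meaning cytotoxicity.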
Assay [7] addresses Phospholipase A2 (Homo sapiens, UniProt P04054). Format: functional.
Assay [8] concerns the target Tyrosine-protein kinase JAK3 (Homo sapiens, UniProt P52333). Format: functional.
In assay [9] the target is Mitogen-activated protein kinase kinase kinase kinase 2 (Homo sapiens, UniProt Q12851). Format: functional.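 Also: measured as one member of a kinome-wide kinase panel, with MAP4K2 as the panel entry.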
Assay [10] concerns the target MAP kinase-activated protein kinase 5 (Homo sapiens, UniProt Q8IW41). It is filed as functional.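 Also: measured as one member of a kinome panel.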
Assay [11] has as its target Tyrosine-protein kinase receptor TYRO3 (Homo sapiens, UniProt Q06418). Format: functional.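 Also: TYRO3 value obtained as one member of a kinome-wide profiling panel.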
For assay [12], the target named is Leucine-rich repeat serine/threonine-protein kinase 2 (Homo sapiens, UniProt Q5S007). Format: functional.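 Also: value from a broad kinome-wide panel profiling study in which LRRK2 was one of the kinases tested.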
The target of assay [13] is Serine/threonine-protein kinase PLK4 (Homo sapiens, UniProt O00444). Format: functional.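 Also: PLK4 measured as one member of a kinome-wide kinase profiling panel.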
For assay [14], the target named is Inhibitor of nuclear factor kappa-B kinase subunit epsilon (Homo sapiens, UniProt Q14164). As to the kind of experiment: Navigating the Kinome. Panel member name: IKBKE. Format: functional.
Inhibitor of nuclear factor kappa-B kinase subunit epsilon, sequence (Q14164 whole entry): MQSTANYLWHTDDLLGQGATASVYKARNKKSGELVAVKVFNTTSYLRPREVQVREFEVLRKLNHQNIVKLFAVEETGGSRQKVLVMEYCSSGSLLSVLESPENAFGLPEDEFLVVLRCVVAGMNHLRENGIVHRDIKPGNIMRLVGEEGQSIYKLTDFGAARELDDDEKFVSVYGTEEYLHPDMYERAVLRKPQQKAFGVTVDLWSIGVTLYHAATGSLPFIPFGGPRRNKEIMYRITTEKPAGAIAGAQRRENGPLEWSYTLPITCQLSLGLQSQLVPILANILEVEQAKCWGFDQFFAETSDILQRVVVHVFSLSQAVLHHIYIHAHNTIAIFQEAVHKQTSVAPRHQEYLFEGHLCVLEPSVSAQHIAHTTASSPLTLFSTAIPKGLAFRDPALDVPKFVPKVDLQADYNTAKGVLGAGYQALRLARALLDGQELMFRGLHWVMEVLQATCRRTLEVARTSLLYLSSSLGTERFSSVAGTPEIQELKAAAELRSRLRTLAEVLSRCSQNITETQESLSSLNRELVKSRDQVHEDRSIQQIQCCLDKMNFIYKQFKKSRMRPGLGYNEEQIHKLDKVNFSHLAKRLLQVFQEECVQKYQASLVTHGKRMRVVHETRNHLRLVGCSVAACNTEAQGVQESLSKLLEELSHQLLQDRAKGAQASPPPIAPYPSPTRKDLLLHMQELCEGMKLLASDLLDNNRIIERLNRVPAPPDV
Assay [15] concerns the target Protein kinase C delta type (Homo sapiens, UniProt Q05655). It is filed as functional.
Assay [16] deals with Protein kinase C gamma type (Homo sapiens, UniProt P05129). It is filed as functional.
In assay [17] the target is Proto-oncogene tyrosine-protein kinase ROS (Homo sapiens, UniProt P08922). Format: functional.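 Also: ROS1 tested as one member of a kinome-wide kinase panel.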
Assay [18] addresses Serine/threonine-protein kinase BRSK1 (Homo sapiens, UniProt Q8TDC3). It is filed as functional.
Assay [19] deals with Dual specificity mitogen-activated protein kinase kinase 1 (Homo sapiens, UniProt Q02750). Nature of the assay: Navigating the Kinome. Panel member name: MAP2K1. It is filed as functional.
Dual specificity mitogen-activated protein kinase kinase 1, sequence (Q02750 whole entry): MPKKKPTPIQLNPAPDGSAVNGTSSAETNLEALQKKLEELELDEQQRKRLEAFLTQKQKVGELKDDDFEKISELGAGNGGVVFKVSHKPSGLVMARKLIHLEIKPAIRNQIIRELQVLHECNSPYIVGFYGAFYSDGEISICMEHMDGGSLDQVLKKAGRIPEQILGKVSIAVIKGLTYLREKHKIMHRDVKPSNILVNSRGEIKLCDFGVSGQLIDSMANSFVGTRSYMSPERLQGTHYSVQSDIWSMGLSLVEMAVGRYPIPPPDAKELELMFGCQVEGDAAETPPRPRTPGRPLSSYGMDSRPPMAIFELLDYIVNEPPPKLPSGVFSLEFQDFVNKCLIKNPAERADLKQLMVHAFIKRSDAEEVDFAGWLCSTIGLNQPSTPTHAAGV
Assay [20] addresses Vascular endothelial growth factor receptor 3 (Homo sapiens, UniProt P35916). Format: functional.
Assay [21] deals with Serine/threonine-protein kinase PLK3 (Homo sapiens, UniProt Q9H4B4). It is filed as functional.
The target of assay [22] is Protein-tyrosine kinase 6 (Homo sapiens, UniProt Q13882). Format: functional.
Protein-tyrosine kinase 6, sequence (Q13882 whole entry): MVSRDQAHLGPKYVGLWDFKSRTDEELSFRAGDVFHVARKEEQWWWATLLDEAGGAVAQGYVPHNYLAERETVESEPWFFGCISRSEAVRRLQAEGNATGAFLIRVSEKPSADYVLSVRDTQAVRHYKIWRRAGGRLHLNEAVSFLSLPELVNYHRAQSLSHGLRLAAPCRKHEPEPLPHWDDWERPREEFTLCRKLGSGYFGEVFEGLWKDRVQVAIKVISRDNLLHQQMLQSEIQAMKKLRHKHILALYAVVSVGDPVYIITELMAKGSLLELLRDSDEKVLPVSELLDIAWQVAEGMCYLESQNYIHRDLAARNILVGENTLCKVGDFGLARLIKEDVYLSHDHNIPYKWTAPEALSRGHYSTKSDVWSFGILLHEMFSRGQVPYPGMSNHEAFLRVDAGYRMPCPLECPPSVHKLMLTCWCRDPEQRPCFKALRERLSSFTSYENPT
Assay [23] addresses Tyrosine-protein kinase Fer (Homo sapiens, UniProt P16591). Format: functional.
The target of assay [24] is Ribosomal protein S6 kinase beta-1 (Homo sapiens, UniProt P23443). It is filed as functional.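 Also: measured as one member of a kinome-wide profiling panel.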
Ribosomal protein S6 kinase beta-1, sequence (P23443 whole entry): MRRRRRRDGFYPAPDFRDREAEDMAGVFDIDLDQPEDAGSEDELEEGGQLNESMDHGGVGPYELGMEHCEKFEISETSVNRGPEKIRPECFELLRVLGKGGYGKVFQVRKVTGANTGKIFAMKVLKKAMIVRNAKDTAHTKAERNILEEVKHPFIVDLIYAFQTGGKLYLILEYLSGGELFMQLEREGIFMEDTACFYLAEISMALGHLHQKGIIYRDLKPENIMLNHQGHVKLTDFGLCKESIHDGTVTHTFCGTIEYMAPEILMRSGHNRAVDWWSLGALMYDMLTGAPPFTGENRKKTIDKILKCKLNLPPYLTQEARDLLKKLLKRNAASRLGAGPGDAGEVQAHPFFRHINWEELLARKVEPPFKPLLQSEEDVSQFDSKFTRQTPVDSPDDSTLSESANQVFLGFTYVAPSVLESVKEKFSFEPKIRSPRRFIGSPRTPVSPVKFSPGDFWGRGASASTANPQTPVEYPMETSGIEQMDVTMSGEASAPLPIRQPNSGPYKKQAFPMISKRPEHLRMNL
Assay [25] concerns the target Serine/threonine-protein kinase D3 (Homo sapiens, UniProt O94806). It is filed as functional.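 Also: determined within a kinase panel screen, with PRKCN as the panel member.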
For assay [26], the target named is Tyrosine-protein kinase Blk (Homo sapiens, UniProt P51451). Format: functional.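 Also: obtained as one member of a kinome-wide kinase assay panel.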
Assay [27] deals with 3-phosphoinositide-dependent protein kinase 1 (Homo sapiens, UniProt O15530). Format: functional.
Assay [28] deals with Mitogen-activated protein kinase 12 (Homo sapiens, UniProt P53778). Format: functional.
The target in assay [29] is Protein kinase C iota type (Homo sapiens, UniProt P41743). It is filed as functional.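 Also: measured within a kinome-wide kinase panel, PRKCI as panel member.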
Assay [30] concerns the target Dual specificity tyrosine-phosphorylation-regulated kinase 3 (Homo sapiens, UniProt O43781). Format: functional.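 Also: measured as one member of a broad kinase panel.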
Assay [31] has as its target Megakaryocyte-associated tyrosine-protein kinase (Homo sapiens, UniProt P42679). Format: functional.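 Also: affinity measured as one member of a kinase panel (Navigating the Kinome) against MATK.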
In assay [32] the target is Serine/threonine-protein kinase pim-2 (Homo sapiens, UniProt Q9P1W9). It is filed as functional.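 Also: value comes from a broad kinase panel profiling study in which PIM2 was one of the panel members.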
Assay [33] addresses Serine/threonine-protein kinase TAO1 (Homo sapiens, UniProt Q7L7X3). Format: functional.
In assay [34] the target is Serine/threonine-protein kinase MRCK alpha (Homo sapiens, UniProt Q5VT25). Format: functional.
The target in assay [35] is MAP/microtubule affinity-regulating kinase 3 (Homo sapiens, UniProt P27448). It is filed as functional.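 Also: MARK3 affinity measured as one member of a kinome panel.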
Assay [36] concerns the target Serine/threonine-protein kinase 3 (Homo sapiens, UniProt Q13188). Format: functional.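 Also: measured as one member of a kinome-wide kinase panel.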
Assay [37] concerns the target Interleukin-1 receptor-associated kinase 1 (Homo sapiens, UniProt P51617). Format: functional.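 Also: IRAK1 tested as one member of a kinome panel.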
Assay [38] concerns the target cAMP-dependent protein kinase catalytic subunit alpha (Homo sapiens, UniProt P17612). Format: functional.
Assay [39] deals with Cyclin-dependent kinase 5 (Homo sapiens, UniProt Q00535). It is filed as functional.
Assay [40] in a line: glucagon-like peptide-1 release potency in STC-1, concentration-response, half-maximal inhibitory concentration in the STC-1 line (AID 1117345). Format: functional, cell-based.
A short description of assay [41]: rise of 2N DNA cells, HeLa – IC50, dose response (AID 1117349). Format: functional, cell-based.
Assay [42] has as its system Staphylococcus aureus. Nature of the assay: Inhibitors of Bacterial Quorum Sensing Structure Activity Relationship (SAR) Analysis: Dose Response Assay. [Related pubchem assays: 700, 527 ]. It is filed as functional, organism-based.
Assay [43] concerns Streptococcus. Nature of the assay: GAS UMAA2166 growth inhibition – luminescence, BacTiterGlo, counter-screen for streptokinase expression inhibitor project, dose response (AID 1915).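 Also: potency for reduction of bacterial viability or growth.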 It is filed as functional, organism-based. A general note: Counterscreens check selectivity or assay interference.
Assay [44] can be described thus: NIH-3T3 fibroblast cytotoxicity, dose response, cytotoxicity control, cell-based, fluorescence, Alamar Blue, secondary assay (AID 2327).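 Also: NIH-3T3 mouse fibroblasts cultured with fluconazole at 8 µg/mL.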 It is filed as functional.
The nature of assay [45]: fluconazole-exposed Candida albicans growth modulators – fluorescence, retest, confirmation (AID 2467). It is filed as functional, cell-based.
A short description of assay [46]: cytotoxicity toward Colo320 cells – cell-based, CellTiter-Glo luminescence, IC50, dose response (AID 1117334). It is filed as functional. The following applies: COLO 320. (ATP-based viability assays read luminescence as a measure of living cells.)

Serine/threonine-protein kinase 3, sequence (Q13188 whole entry): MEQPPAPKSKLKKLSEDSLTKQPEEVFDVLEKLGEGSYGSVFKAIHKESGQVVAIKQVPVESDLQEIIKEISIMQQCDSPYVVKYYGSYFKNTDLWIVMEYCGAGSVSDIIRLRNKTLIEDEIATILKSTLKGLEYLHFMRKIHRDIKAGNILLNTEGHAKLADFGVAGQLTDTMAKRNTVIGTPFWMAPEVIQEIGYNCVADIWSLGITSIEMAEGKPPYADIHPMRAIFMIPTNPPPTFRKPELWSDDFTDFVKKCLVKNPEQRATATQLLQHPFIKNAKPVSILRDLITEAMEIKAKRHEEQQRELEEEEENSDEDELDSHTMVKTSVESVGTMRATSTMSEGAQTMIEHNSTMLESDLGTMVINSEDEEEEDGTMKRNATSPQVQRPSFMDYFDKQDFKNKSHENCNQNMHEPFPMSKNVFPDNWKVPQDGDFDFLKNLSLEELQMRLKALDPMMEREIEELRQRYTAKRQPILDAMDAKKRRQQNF
Tyrosine-protein kinase Fer, sequence (P16591 whole entry): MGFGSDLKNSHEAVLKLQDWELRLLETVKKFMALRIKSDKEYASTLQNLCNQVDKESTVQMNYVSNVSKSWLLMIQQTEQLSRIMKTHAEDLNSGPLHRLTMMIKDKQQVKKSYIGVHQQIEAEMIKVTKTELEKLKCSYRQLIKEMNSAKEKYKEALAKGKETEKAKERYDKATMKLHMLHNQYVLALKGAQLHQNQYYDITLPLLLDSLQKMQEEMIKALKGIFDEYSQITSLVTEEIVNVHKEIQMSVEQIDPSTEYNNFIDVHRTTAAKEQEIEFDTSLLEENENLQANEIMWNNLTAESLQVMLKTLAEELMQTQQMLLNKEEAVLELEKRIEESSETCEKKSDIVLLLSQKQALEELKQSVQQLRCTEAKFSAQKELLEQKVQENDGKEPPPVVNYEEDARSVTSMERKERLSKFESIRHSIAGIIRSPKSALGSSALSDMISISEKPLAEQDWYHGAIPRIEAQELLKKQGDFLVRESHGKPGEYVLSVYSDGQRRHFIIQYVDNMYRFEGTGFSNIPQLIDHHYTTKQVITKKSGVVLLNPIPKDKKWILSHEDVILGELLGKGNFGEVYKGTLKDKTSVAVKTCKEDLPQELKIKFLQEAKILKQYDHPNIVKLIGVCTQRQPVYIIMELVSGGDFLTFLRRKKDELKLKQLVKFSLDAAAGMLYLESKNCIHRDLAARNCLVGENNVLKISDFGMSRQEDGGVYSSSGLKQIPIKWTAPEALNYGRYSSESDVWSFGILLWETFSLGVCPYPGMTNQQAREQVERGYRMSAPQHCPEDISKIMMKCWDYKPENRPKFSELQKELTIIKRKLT
Phospholipase A2, sequence (P04054 whole entry): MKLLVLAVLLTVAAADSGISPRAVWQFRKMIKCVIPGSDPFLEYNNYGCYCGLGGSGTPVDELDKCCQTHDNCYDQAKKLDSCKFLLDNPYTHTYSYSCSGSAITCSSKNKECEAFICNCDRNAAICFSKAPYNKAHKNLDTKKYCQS

In general, EC50 refers to the midpoint of the concentration-response curve. One may read the AC50 as the concentration giving half of the maximal activity seen. For orientation: IC50 means the point on the concentration scale where inhibition reaches its midpoint. `O=C1C=C(N2CCOCC2)c2ccccc2C1=O`: in assay [1], the 50% effective concentration (EC50) was 13.3 µM (active). In addition, the AC50 was 8.28 µM (active) in assay [2], 5.14 µM (active) in [3] and 4.72 µM (active) in assay [4]. The IC50 in assay [5] was 2.55 µM (active); in assay [6], 13.6 µM (active); in [7], > 80 µM (inactive).

The term Ki denotes a measure of affinity in units of concentration, obtained from inhibition or displacement. Regarding `N#Cc1ccc2[nH]c(O)c(-c3ccc(CN4CCOCC4)cn3)c2c1` [AZD-1080], the Ki is > 3.98 µM (inactive) in [8]; > 3.98 µM (inactive) in [9]; > 1.58 µM (inactive) in [10]; > 2.51 µM (inactive) in [11]; > 2.51 µM (inactive) in [12]; > 3.98 µM (inactive) in [13]. The Ki is > 3.16 µM (inactive) in assay [14]; > 7.94 µM (inactive) in [15]; > 7.94 µM (inactive) in assay [16]; > 2 µM (inactive) in assay [17]; > 7.94 µM (inactive) in [18]; > 3.16 µM (inactive) in [19]. The Ki in [20] is > 6.31 µM (inactive); in assay [21] it was > 7.94 µM (inactive); in [22], > 2.51 µM (inactive); in [23], > 1.58 µM (inactive); in [24], > 6.31 µM (inactive); in assay [25] it was > 5.01 µM (inactive). Besides, the Ki in assay [26] was > 1.58 µM (inactive); in [27], > 3.98 µM (inactive); in assay [28] it was > 6.31 µM (inactive); in assay [29] it was > 5.01 µM (inactive); in [30], 1 µM (active); in assay [31], > 2 µM (inactive). The Ki in assay [32] is > 1.58 µM (inactive); in assay [33] it was > 7.94 µM (inactive); in assay [34], > 10 µM (inactive); in [35], > 6.31 µM (inactive); in [36], > 7.94 µM (inactive); in assay [37] it was > 7.94 µM (inactive). Besides, the Ki is > 3.16 µM (inactive) in assay [38] and 0.398 µM (active) in assay [39].

Consider `CCc1oc2ccccc2c1C(=O)c1cc(Br)c(O)c(Br)c1` [BENZBROMARONE], for which the IC50 is > 40 µM (inactive) in [40], > 10 µM (inactive) in assay [41], 0.131 µM (active) in assay [42] and > 20 µM (inactive) in assay [46]. Also, the figures for the EC50 in assay [43], in [44] and in [45] were > 150 µM (not active), > 160 µM (inactive) and 0.059 µM (active), respectively.
